# Data: publication PMC4412663, “Pathway for Biodegrading Microcystin-YR by Sphingopyxis sp. USTB-05” (PLoS ONE, 2015)
# How the values were obtained:
# [1] = tested on: crude enzymes (CEs) of Sphingopyxis sp. USTB-05; conditions: cited from earlier work
# Sphingopyxis sp. USTB-05 = conditions: cited from earlier work
# [2] = tested on: crude enzymes (CEs) of Sphingopyxis sp. USTB-05; assay: Enzymatic biodegradation by crude enzymes (CEs) of Sphingopyxis sp. USTB-05; format: in vitro ADME
# Method: At logarithmic growth phase of the third day, the culture solution of Sphingopyxis sp. USTB-05 was centrifuged at 8,000 r/min for 20 min, and then the supernatant was decanted. The pelleted cells were washed three times with 50 mmol/L phosphate buffer solution (PBS, pH 7.0). The harvested cells were resuspended in 20 mL PBS and disrupted using an ultrasonic disruptor with an output power of 600 W for 15 min at 4°C. The cell debris was removed by centrifugation at 12,000 r/min for 30 min. The supernatant was collected, and after handling by 3500 MWCO dialysis bag small molecules such as Tyr was removed, it was used as CEs in the enzymatic biodegradation of MC-YR and its protein profile was determined using sodium dodecyl sulfate-polyacrylamide gel electrophoresis (SDS-PAGE) on 12% polyacrylamide gel. […].
# The total biodegradation reaction volume was 5 mL containing 14.8 mg/L MC-YR and 103.6 mg/L protein in PBS in a 10 mL centrifuge tube. The reaction was at 30°C with the shake rate of 200 r/min. […]
# MC-YR and its enzymatic biodegradation products were firstly measured using a HPLC system (Shimadzu LC-10ATVP, Shimadzu Co., Ltd., Japan) with a ultraviolet (UV) Diode Array Detector at 238 nm and 230 nm using a Agilent TC-C18 column (4.6 mm×250 mm) (Agilent, 1200 series, USA). […]
substance,measurement,setting,value
microcystin-LR [MC-LR],time to total removal by CEs of USTB-05,[1],≤ 10 h
same,time to total removal by USTB-05,Sphingopyxis sp. USTB-05,≤ 20 h
microcystin-YR [MC-YR],average biodegradation rate of MC-YR,[2],1.5 mg/L per hour
same,time to complete removal of MC-YR by CEs,[2]; pH 7,≤ 10 h
microcystin-RR [MC-RR],time to complete biodegradation by Sphingopyxis sp. USTB-05,Sphingopyxis sp. USTB-05,≤ 36 h
